These results are taken from patent US7348330B2, “1-azabicyclo [2,2,2] octan-3-one derivatives” (Aprea AB, priority 2000, dated 2008).

In test [1] the target is T1, endogenous Trp-282 mutant p53 (Homo sapiens, UniProt P04637, R282W).
T1 construct: endogenous Trp-282 mutant p53 in cell extracts from Burkitt lymphoma BL-60 cells; endogenous in cells; host or cells: Burkitt lymphoma BL-60 cells (cell extract)
The experiment in a line: Band shift assay, BL-60 cell extracts. In kind it is biochemical. The conditions noted are these: cell extracts from Burkitt lymphoma BL-60 cells.

Test [2] relates to KRC/Y renal carcinoma cells (Phe-176 mutant p53). The experiment in a line: FACS analysis of apoptosis. In kind it is cell-based, human. On the procedure: The percentage of apoptotic cells was detected by FACS analysis as it was described in FIG. 3A.
(§1) Cells were placed on 12-well plate at a density of 30000/cm^2 and treated with compounds. After 48 h incubation cells were harvested by trypsinization, fixed with 70% ethanol, treated with RNase A (0.25 mg/ml) and stained with propidium iodide (0.02 mg/ml). Samples were analyzed on a Becton Dickinson FACScan. Data were analyzed by the CellQuest software, version 3.2.1.
Thus, it appears that the defect caused by substitution of the Cys residue at position 176 is irreversible. The substitution of this Cys residue abolishes the binding of a Zn atom which holds together the DNA-binding loops of the p53 core domain. Therefore, the unfolding of this mutant p53 protein is probably too extensive to be restored.
A general note: In flow cytometry, cells or beads pass a laser one at a time.

Test [3] deals with Saos-2-His-273 cells. The experiment in a line: Colony formation assay. In kind it is cell-based, human. The text has this:
Colonies were stained with Giemsa and counted 14 days after seeding.
The cells were Giemsa stained and scored for the appearance of colonies after 14 days.

Another test has as its system SKOV-His-175 cells. The experiment in a line: p53-responsive EGFP reporter. It is filed as cell-based, human. The text has this:
FIG. 9B, mutant p53-dependent activation of the wild-type p53-responsive EGFP reporter in PRIMA-1-treated SKOV-His-175 cells. […] FIG. 9C, MIRA-1 induced wild-type p53-responsive EGFP reporter in SKOV-His-175 cells.
The plasmids encoding the GST-human wild type p53 fusion protein and the GST-human mutant p53 proteins His 175 were described earlier (Selivanova et al., 1996). The p53-EGFP plasmid contains 13 synthetic p53 consensus DNA binding sites in front of the EGFP coding sequence. Transient transfections experiments were performed with Lipofectamine 2000 according to the manufacturer's recommendations (Invitrogen™ Life Technologies, Groningen, The Netherlands).
We also transiently transfected SKOV-His-175 cells with a p53-responsive EGFP reporter.

Test [4] concerns p53-responsive PG-luciferase reporter in Saos-2-His-273 cells. The experiment in a line: PG-luciferase reporter assay. It is filed as cell-based, human. The protocol:
Transactivation assays using p53-responsive promoter constructs linked to the luciferase reporter gene (PG-luc) were performed by the Dual Luciferase Reporter Assay System (Promega) according to the manufacturer. […] A luciferase activity was assayed 1; 3.5 and 15 hours post-treatment.
(In a reporter assay the amount or activity of a reporter protein is the signal.)

The test system of test [5] is recombinant wild type and mutant p53 proteins. The experiment in a line: ELISA of p53 conformation upon heating 30 min at 37° C. In kind it is biochemical, human. The settings on record: for appearance of PAb240 epitope (unfolding) upon heating: 37° C.; for PAb1620 epitope after heating: 30 min at 37° C.; for DO-1 non-conformational epitope: incubation with compounds. The protocol: Absorbance of the control sample incubated on ice was taken as 100%.
20 ng of GST-wtp53, GST-mtp53-175 and GST-mtp53-248 were heated at 37° C. for 30 min or kept on ice. The procedure was performed with or without tested compounds. The ELISA analyses were done as described by (Foster et al., 1999). Briefly, after the treatment, samples were diluted with coating buffer (150 mM KCL, 25 mM HEPES) supplemented with 10 mM DTT. The whole mixture was apply to ELISA plates (MaxiSorp, Nunc) and incubated at +4° C. for 35 min. The wells were washed with coating buffer. The wells were blocked by 5% skim milk in PBS by incubating at +4° C. for 1 h. […] Samples were incubated at +4° C. for 30 min. Wells were rinsed twice with PBS. After that, a secondary antibody (anti-mouse, conjugated with horse radish peroxidase) was incubated with samples at +4° C. for 30 min. Then plates were washed 5 times with PBS and a peroxidase substrate was added. An absorbance at λ405 nm was monitored by ELISA reader.
A general note: In an ELISA, binding on a coated surface is turned into a signal by an enzyme label.

For test [6], the system named is SW480 colon carcinoma cells carrying endogenous His-273 mutant p53. The experiment in a line: Western blot of p53 target genes p21 and MDM2. The settings on record: Western blotting. In kind it is cell-based. The text has this:
In order to assess the effect of the analogs on the transcriptional transactivation function of mutant p53, we tested the expression of p53 target genes after treatment with analogs of colon carcinoma cells SW480 expressing endogenous His-273 mutant p53.

The subject of another test is p53-null Saos-2 cells. The experiment in a line: FACS analysis of apoptosis (sub-G1, propidium iodide). Further details: dose or concentration left out as unconfirmed. It is filed as cell-based, human. The protocol: Induction of apoptosis was determined by FACS analysis of ethanol fixed cells stained with propidium iodide (PI) as percentage of a sub-G1 population. […] The percentage of dead cells in non-treated cultures and in controls treated with caspase inhibitors only was subtracted. […] Hoechst staining was used to stain cell nuclei. […] The percentage of apoptotic cells was measured by FACS analysis as it was described in Figure.
as §1

Test [7] relates to human tumor cell lines with different p53 status (p53 null, wild type p53, mutant p53). Briefly: WST-1 growth suppression, series of tumor cell lines. In kind it is cell-based. The text has this: In addition, mouse p53 null J3D T-cell lymphoma line was used.
For test [8], the system named is A431 cells that carry endogenous His-273 mutant p53. The experiment in a line: p53-responsive lacZ reporter. It is filed as cell-based. The settings on record: 50 μM for 20 hours.
Test [9] relates to Saos-2-His-273 cells. Briefly: Anti-tumor activity, xenograft in SCID mice. The conditions noted are these: after 59 days. In kind it is in vivo. On the procedure:
SCID mice were injected with Saos-2-His-273 cells. […] Tumor volumes were measured once in three days for two months.
All animal studies were approved by the local animal ethical committee and animal care was in accordance with institutional guidelines. For toxicity assessment, 12 SCID mice (average weight 25 g) were divided in 4 groups. […] Control animals were injected with PBS. We measured weights of the mice for 1 month after the last injection. […] After 3 days the mice were divided into 4 groups. […] Injections were performed twice daily for 3 days. Tumor volume was measured during 2 months.
In the untreated control group, the average tumor volume after 59 days was 555.7±284 mm^3 (means±SE, n=3).

As for `CCC(=O)OCN1C(=O)C=CC1=O` [MIRA-1], in test [1], the “restoration of sequence-specific DNA binding” value is on record as “able to restore”. Besides, the “induction of apoptosis compared to Saos-2-His-273 cells” value in [2] (50 μM) is recorded as “much less prominent”. In the test on Saos-2-His-273 cells [3] (5 µM of compound, colonies after 14 days), the “number of colonies, % of untreated control” value turned out to be 15%. Moreover, the EGFP reporter expression entry in the test on SKOV-His-175 cells (5μM for 24 hours) was “induction of EGFP was also observed”. In test [4] (after 3.5 hours, 10 μM), the “stimulation of luciferase expression” value is reported as 2 fold. In test [5], the “appearance of PAb240 epitope (unfolding) upon heating” value is given as “able to prevent unfolding”, the “PAb1620 epitope after heating” value is recorded as “preserve the conformation-dependent epitope” and the DO-1 non-conformational epitope entry was “not affected”. Further, the “induction of MDM2 and p21” value in test [6] was “induced MDM2 and p21”. In the test with p53-null Saos-2 cells (48 hours), the induction of apoptosis entry is recorded as “not in p53-null Saos-2 cells”. In [7], the “growth suppression of mutant p53-expressing cells versus p53 null and wild type p53 cells” value is given as “more efficiently”.
Regarding `O=C1C2CCN(CC2)C1(CO)CO` [PRIMA-1, 2,2-bis(hydroxymethyl)-1-azabicyclo[2,2,2]octan-3-one], the “induction of apoptosis compared to Saos-2-His-273 cells” value in [2] (75 μM) was “much less prominent”. Also, the “doses inhibitory to colony formation in a mutant p53-dependent manner” value in the test on Saos-2-His-273 cells [3] (Saos-2-His-273 vs Saos-2) was 50 to 100 µM. Further, the lacZ reporter induction result in test [8] is listed as “appearance of lacZ-positive cells”. The EGFP reporter expression result was “strong induction of EGFP expression” in the test with SKOV-His-175 cells (cells expressing mutant p53, 24 hours) and “did not express detectable levels of EGFP” with SKOV-His-175 cells (doxycycline (p53 off), 24 hours). The “induction of luciferase expression” value in [4] (after 15 hours, 50 μM) stood at 2 fold. For the same compound, the “appearance of PAb240 epitope (unfolding) upon heating” value in test [5] is given as “able to prevent unfolding”. For the same compound, the “PAb1620 epitope after heating” value in test [5] is on record as “preserve the conformation-dependent epitope”. In addition, the DO-1 non-conformational epitope entry in test [5] is “not affected”. Moreover, the “induction of MDM2 and p21” value in [6] was “induced MDM2 and p21”. The induction of apoptosis result in the test with p53-null Saos-2 cells (50, 75 and […], no p53 expression) was “much less efficient”. Besides, the “growth suppression of mutant p53-expressing cells versus p53 null and wild type p53 cells” value in [7] is “more efficiently”. The results for the average tumor volume in the test with Saos-2-His-273 cells [9] (20 mg/kg i.v. twice a day for three days), in the test on Saos-2-His-273 cells [9] (intratumor 20 mg/kg twice a day for three days) and in the test on Saos-2-His-273 cells [9] (intravenous 100 mg/kg twice a day for three days) were 53±48.5 mm^3, 5.3±2.7 mm^3 and 11.7±8 mm^3, respectively.
